Where two headings read alike, the source gives them in different places.
Target: T1, cloned human MC4R (Homo sapiens, UniProt P32245)
T1 construct: made in house; host or cells: Hi5 insect cells (baculovirus infection); membrane preparation
Test: Membrane binding assay: competitive inhibition of [125I]NDP-α-MSH binding
Settings: for inhibition at 10 µM: read-out: Displacement Rate (%) (at 10 μM)
Procedure: Hi5 cells are infected using the following protocol: Cells at a density of 1×10^6 cells/mL are spun down at 1000 rpm (Beckman GS-6KR centrifuge) for 10 minutes. Cells are resuspended in 10% of their original volume in a sterile 50 mL conical centrifuge tube wrapped with aluminum foil. Virus is added at a Multiplicity of Infection (MOI) of 3 and incubated for 1 hour at room temperature with gentle shaking. […] Cells are spun down in 50 mL conical centrifuge tubes at 1000 rpm for 10 minutes. Each of the resulting pellets are resuspended in 10 mL of cold (4° C.) membrane buffer (25 mM HEPES, pH 7.4, 140 mM NaCl, 1.2 mM MgCl2, 2.5 mM CaCl2, 10 μG/mL Aprotinin, 10 μG/mL Leupeptin) and Dounce homogenized using 10-12 strokes. […] The resulting pellet is resuspended in cold membrane buffer in a total of ¼ of the original volume by vortexing and aspiration using a syringe and 27 gauge needle. Protein content is determined (Bradford, Bio-Rad Protein Assay). Membranes are aliquoted in microcentrifuge tubes and quick frozen in liquid nitrogen. Store at −80° C. until use. The membrane binding buffer is composed of 25 mM HEPES, pH 7.4, 140 mM NaCl, 1.2 mM MgCl2, 2.5 mM CaCl2, 0.1% BSA. […] The mixture is filtered with Brandel Microplate 96 filter apparatus using 96-well GF/B filter presoaked in 1-% polyethyleneimine (Sigma). The filter is washed (4 times with a total of 1 mL per well) with cold wash buffer consisting of 20 mM HEPES, pH 7.4, 5 mM MgCl2. […] 100 μl of Wallac Optiphase Supermix scintillation fluid is added to each well. The top is sealed and the plates are shaken to insure that the filters are thoroughly soaked with fluid. […] Dose-response curves are fitted by […] analyses and IC50 values are calculated using ExcelFit.

[1] = at 10 μM, [125I]NDP-α-MSH displacement

T1 sequence (P32245 whole entry): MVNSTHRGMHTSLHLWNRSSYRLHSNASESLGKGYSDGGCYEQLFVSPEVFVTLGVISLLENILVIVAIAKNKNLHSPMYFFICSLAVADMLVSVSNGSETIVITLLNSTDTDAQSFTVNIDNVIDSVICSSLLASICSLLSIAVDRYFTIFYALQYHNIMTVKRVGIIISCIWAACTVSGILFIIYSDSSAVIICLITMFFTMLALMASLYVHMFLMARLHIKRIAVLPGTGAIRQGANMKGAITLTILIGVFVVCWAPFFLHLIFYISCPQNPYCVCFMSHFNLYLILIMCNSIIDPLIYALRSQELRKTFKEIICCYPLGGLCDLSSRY

| SMILES | inhibition at 10 µM [1] [%] | IC50 (read-out: MC4R IC50) [µM] | Displacement Rate (%) (at 10 μM) [1] | inhibition at 10 µM [%] | IC50 [µM] |
| --- | --- | --- | --- | --- | --- |
| N[C@@H](Cc1ccc(OCc2ccccc2)cc1)C(=O)N1CCCN(CC2CCCCC2)CC1 [Example 53] | 35 to 70 | > 3 |  |  |  |
| CCCOc1ccc(CN2CCN(C(=O)[C@@H](N)Cc3ccc(OCc4ccccc4)cc3)CC2)cc1 [Example 126] | 71 to 90 | 1.5 to 3 |  |  |  |
| N[C@@H](Cc1ccc(OCc2ccc(F)cc2)cc1)C(=O)N1CCN(Cc2cccc(Cl)c2Cl)CC1 [Example 188] |  | < 1.5 | +++ (+++ = 91-100) |  |  |
| CCOc1cccc(CN2CCCN(C(=O)[C@@H](N)Cc3ccc(OCc4ccccc4)cc3)CC2)c1O [Example 40] | 71 to 90 | > 3 |  |  |  |
| N[C@@H](Cc1ccc(OCc2ccccc2)cc1)C(=O)N1CCCN(Cc2ccc(-c3ccccc3)cc2)CC1 [Example 8] | 91 to 100 | 1.5 to 3 |  |  |  |
| N[C@@H](Cc1ccc(OCc2ccccc2)cc1)C(=O)N1CCCN(Cc2cn(Cc3ccccc3)c3ccccc23)CC1 [Example 9] | 91 to 100 | < 1.5 |  |  |  |
| CC(Cc1cccc(C(F)(F)F)c1)N1CCCN(C(=O)[C@@H](N)Cc2ccc(OCc3ccccc3)cc2)CC1 (some centres unmarked) [Example 44] | 71 to 90 | 1.5 to 3 |  |  |  |
| N[C@@H](Cc1ccc(OCc2cc(Cl)cc(Cl)c2)cc1)C(=O)N1CCN(Cc2cccc(Cl)c2Cl)CC1 [Example 189] |  | < 1.5 | +++ (+++ = 91-100) |  |  |
| N[C@@H](Cc1ccc(OCc2ccccc2)cc1)C(=O)N1CCN(Cc2c3ccccc3cc3ccccc23)CC1 [Example 100] |  | 1.5 to 3 |  | 91 to 100 |  |
| CSc1ccc(CN2CCN(C(=O)[C@@H](N)Cc3ccc(OCc4ccccc4)cc3)CC2)cc1 [Example 125] | 71 to 90 | 1.5 to 3 |  |  |  |
| N[C@@H](Cc1ccc(OCc2ccccc2)cc1)C(=O)N1CCCN(Cc2cc3c(cc2Cl)OCO3)CC1 [Example 71] |  | > 3 |  | 35 to 70 |  |
| N[C@@H](Cc1ccc(OCc2ccccc2)cc1)C(=O)N1CCCN(Cc2ccc(-c3ccc(Cl)cc3)o2)CC1 [Example 6] | 91 to 100 | 1.5 to 3 |  |  |  |
| Cc1ccc(S(=O)(=O)n2cc(CN3CCCN(C(=O)[C@@H](N)Cc4ccc(OCc5ccccc5)cc4)CC3)c3ccccc32)cc1 [Example 18] | 91 to 100 | < 1.5 |  |  |  |
| N[C@@H](Cc1ccc(OCc2ccccc2)cc1)C(=O)N1CCN(Cc2cc(F)ccc2F)CC1 [Example 145] | 35 to 70 | > 3 |  |  |  |
| N[C@@H](Cc1ccc(OCc2ccccc2)cc1)C(=O)N1CCN(Cc2cc([N+](=O)[O-])ccc2Cl)CC1 [Example 134] |  | 1.5 to 3 |  | 35 to 70 |  |
| N[C@@H](Cc1ccc(OCc2ccccc2)cc1)C(=O)N1CCCN(Cc2ccc(-c3cccc([N+](=O)[O-])c3)o2)CC1 [Example 21] | 91 to 100 | 1.5 to 3 |  |  |  |
| N[C@@H](Cc1ccc(OCc2ccccc2)cc1)C(=O)N1CCN(Cc2c(F)cccc2F)CC1 [Example 142] | 35 to 70 | > 3 |  |  |  |
| N[C@@H](Cc1ccc(OCc2ccccc2)cc1)C(=O)N1CCN(Cc2ccc(F)cc2F)CC1 [Example 153] | 35 to 70 | > 3 |  |  |  |
| CC(c1ccccc1)N1CCN(C(=O)[C@@H](N)Cc2ccc(OCc3ccccc3)cc2)CC1 (some centres unmarked) [Example 157] | 35 to 70 | > 3 |  |  |  |
| N[C@@H](Cc1ccc(OCc2ccccc2)cc1)C(=O)N1CCCN(Cc2ccc(Br)cc2)CC1 [Example 56] |  |  |  | 35 to 70 | > 3 |
| Cc1ccsc1CN1CCN(C(=O)[C@@H](N)Cc2ccc(OCc3ccccc3)cc2)CC1 [Example 128] | 35 to 70 | > 3 |  |  |  |
| N[C@@H](Cc1ccc(OCc2ccccc2)cc1)C(=O)N1CCCN(Cc2cc([N+](=O)[O-])ccc2Cl)CC1 [Example 34] |  | > 3 |  | 71 to 90 |  |
| N[C@@H](Cc1ccc(OCc2ccccc2)cc1)C(=O)N1CCN(Cc2ccc3c(c2)OCCO3)CC1 [Example 156] | 35 to 70 | > 3 |  |  |  |
| N[C@@H](Cc1ccc(OCc2ccccc2)cc1)C(=O)N1CCN(Cc2cc3c(cc2[N+](=O)[O-])OCO3)CC1 [Example 154] | 35 to 70 | > 3 |  |  |  |

Second part, the compound after the results:

| inhibition at 10 µM [1] [%] | IC50 (read-out: MC4R IC50) [µM] | Displacement Rate (%) (at 10 μM) [1] | inhibition at 10 µM [%] | IC50 [µM] | SMILES |
| --- | --- | --- | --- | --- | --- |
|  | 1.5 to 3 | +++ (+++ = 91-100) |  |  | COc1ccc(Cl)cc1-c1ccc(C[C@H](N)C(=O)N2CCN(Cc3cccc(Cl)c3Cl)CC2)cc1 [Example 327] |
| 35 to 70 | > 3 |  |  |  | COc1cc(-c2ccc(C[C@H](N)C(=O)N3CCN(Cc4cccc(Cl)c4Cl)CC3)cc2)cc(OC)c1OC [Example 334] |
|  | 1.5 to 3 |  |  |  | Cc1cccc(Oc2ccc(C[C@H](N)C(=O)N3CCN(Cc4cccc(Cl)c4Cl)CC3)cc2)c1 [Example 347] |
| 91 to 100 | < 1.5 |  |  |  | N[C@@H](Cc1ccc(-c2cc(C(F)(F)F)cc(C(F)(F)F)c2)cc1)C(=O)N1CCN(Cc2cccc(Cl)c2Cl)CC1 [Example 297] |
|  | < 1.5 |  | 91 to 100 |  | N[C@@H](Cc1ccc(-c2cc3ccccc3s2)cc1)C(=O)N1CCN(Cc2cccc(Cl)c2Cl)CC1 [Example 338] |
| 91 to 100 | 1.5 to 3 |  |  |  | COc1ccc(-c2ccc(C[C@H](N)C(=O)N3CCN(Cc4cccc(Cl)c4Cl)CC3)cc2)cc1 [Example 317] |
| 91 to 100 | < 1.5 |  |  |  | N[C@@H](Cc1ccc(-c2ccc(Oc3ccccc3)cc2)cc1)C(=O)N1CCN(Cc2cccc(Cl)c2Cl)CC1 [Example 302] |
|  | 1.5 to 3 | ++ (++ = 71-90) |  |  | CSc1ccc(COc2ccc(C[C@H](N)C(=O)N3CCN(Cc4cccc(Cl)c4Cl)CC3)cc2)cc1 [Example 224] |
|  | < 1.5 |  | 91 to 100 |  | N[C@@H](Cc1ccc(-c2ccsc2)cc1)C(=O)N1CCN(Cc2cccc(Cl)c2Cl)CC1 [Example 339] |
|  | < 1.5 | +++ (+++ = 91-100) |  |  | COc1ccc(CCOc2ccc(C[C@H](N)C(=O)N3CCN(Cc4cccc(Cl)c4Cl)CC3)cc2)cc1 [Example 254] |
|  | < 1.5 | +++ (+++ = 91-100) |  |  | N[C@@H](Cc1ccc(OCCc2ccccc2)cc1)C(=O)N1CCN(Cc2cccc(Cl)c2Cl)CC1 [Example 238] |
|  | < 1.5 | +++ (+++ = 91-100) |  |  | N[C@@H](Cc1ccc(OCc2cccc(OCc3ccccc3)c2)cc1)C(=O)N1CCN(Cc2cccc(Cl)c2Cl)CC1 [Example 206] |
|  | > 3 | + (+ = 35-70) |  |  | N[C@@H](Cc1ccc(OCc2ccc3c(c2)OCO3)cc1)C(=O)N1CCN(Cc2cccc(Cl)c2Cl)CC1 [Example 235] |
|  | 1.5 to 3 |  | 71 to 90 |  | N[C@@H](Cc1ccc(-c2cnc3ccccc3c2)cc1)C(=O)N1CCN(Cc2cccc(Cl)c2Cl)CC1 [Example 341] |
|  | < 1.5 |  | 91 to 100 |  | N[C@@H](Cc1ccc(-c2cccc3c2sc2ccccc23)cc1)C(=O)N1CCN(Cc2cccc(Cl)c2Cl)CC1 [Example 337] |
|  | < 1.5 | +++ (+++ = 91-100) |  |  | N[C@@H](Cc1ccc(OCc2ccc3ccccc3c2)cc1)C(=O)N1CCN(Cc2cccc(Cl)c2Cl)CC1 [Example 217] |
|  | > 3 | ++ (++ = 71-90) |  |  | N[C@@H](Cc1ccc(OCCc2ccc([N+](=O)[O-])cc2)cc1)C(=O)N1CCN(Cc2cccc(Cl)c2Cl)CC1 [Example 258] |
| 91 to 100 | < 1.5 |  |  |  | N[C@@H](Cc1ccc(-c2ccc(OC(F)(F)F)cc2)cc1)C(=O)N1CCN(Cc2cccc(Cl)c2Cl)CC1 [Example 292] |
|  | 1.5 to 3 | ++ (++ = 71-90) |  |  | CN(CCOc1ccc(C[C@H](N)C(=O)N2CCN(Cc3cccc(Cl)c3Cl)CC2)cc1)Cc1ccccc1 [Example 285] |
|  | > 3 | ++ (++ = 71-90) |  |  | COc1ccc(COc2ccc(C[C@H](N)C(=O)N3CCN(Cc4cccc(Cl)c4Cl)CC3)cc2)c(OC)c1 [Example 228] |
|  | < 1.5 | +++ (+++ = 91-100) |  |  | N[C@@H](Cc1ccc(OCc2ccccc2Cc2ccccc2)cc1)C(=O)N1CCN(Cc2cccc(Cl)c2Cl)CC1 [Example 215] |
|  | 1.5 to 3 | +++ (+++ = 91-100) |  |  | N[C@@H](Cc1ccc(OCc2ccc(OCc3ccccc3)cc2)cc1)C(=O)N1CCN(Cc2cccc(Cl)c2Cl)CC1 [Example 208] |
|  | > 3 |  | 35 to 70 |  | COc1ccc(-c2ccc(C[C@H](N)C(=O)N3CCN(Cc4cccc(Cl)c4Cl)CC3)cc2)cn1 [Example 343] |
|  | < 1.5 | +++ (+++ = 91-100) |  |  | N[C@@H](Cc1ccc(OCCc2cccc(F)c2)cc1)C(=O)N1CCN(Cc2cccc(Cl)c2Cl)CC1 [Example 240] |
